Data set [1] can be described thus: single time-point (2 h) oral pharmacokinetic screening in mice. The format is in vivo, mouse. To be noted: single time point PK, oral 10 mg/kg DPTIP equivalent. How it is done: (§1) All PK studies in mice were conducted according to protocols approved by the Animal Care and Use Committee at Johns Hopkins University. Male CD-1 mice between 25 and 30 g were obtained from Harlan and maintained on a 12 h light-dark cycle with ad libitum access to food and water. […] All of the formulations were freshly prepared prior to the dosing. The mice were sacrificed at specified time points (either 2 h or 0.25, 0.5, 1, 2, 4, 6, and 8 h) post drug administration. For the collection of plasma and brain tissue, animals were euthanized with CO2, and blood samples were collected in heparinized microtubes by cardiac puncture. Brains were dissected and immediately flash frozen (−80° C.) Blood samples were spun at 2000 g for 15 min, and plasma was removed and stored at −80° C. until LC-MS/MS analysis. Prior to extraction, frozen samples were thawed on ice.
Brain tissues were diluted 1:5 w/v with acetonitrile containing losartan (0.5 μm) and homogenized, followed by vortex-mixing and centrifugation at 10,000 g for 10 min at 4° C. […] Plasma concentrations (nmol/ml) as well as brain tissue concentrations (nmol/g) were determined and plots of mean plasma concentration versus time were constructed. Non-compartmental analysis modules in Phoenix WinNonlin version 7.0 (Certara USA, Inc., Princeton, NJ) were used to quantify exposures (AUC0-t).

A short description of data set [2]: time-dependent oral pharmacokinetics in mice. It is filed as in vivo, mouse. As for the experimental part:
As described earlier, we identified P1 and P18 as the most promising candidates for time dependent PK.
as §1
Brain tissues were diluted 1:5 w/v with acetonitrile containing losartan (0.5 μm) and homogenized, followed by vortex-mixing and centrifugation at 10,000 g for 10 min at 4° C. A 50 μL aliquot of the supernatant were diluted with 50 uL of water and transferred to 250 μL polypropylene autosampler vials sealed with teflon caps. Then, 2 μL of the sample were injected into the LC/MS/MS system for analysis. Chromatographic analysis was performed using an Accela ultra-high-performance system consisting of an analytical pump and an autosampler coupled with a TSQ Vantage mass spectrometer. […] The mobile phase consisted of 0.1% formic acid in acetonitrile and 0.1% formic acid in water with gradient elution were used. […] Plasma concentrations (nmol/ml) as well as brain tissue concentrations (nmol/g) were determined and plots of mean plasma concentration versus time were constructed. Non-compartmental analysis modules in Phoenix WinNonlin version 7.0 (Certara USA, Inc., Princeton, NJ) were used to quantify exposures (AUC0-t).

On to `CCC1CC(N2CCCCC2)CC(CC)N1C(=O)Oc1c(OC)cc(-c2nc(-c3ccccc3)c(-c3cccs3)[nH]2)cc1OC` (stereo not drawn) [Compound P18, 2,6-Dimethoxy-4-(5-phenyl-4-(thiophen-2-yl)-1H-imidazol-2-yl)phenyl 2′,6′-diethyl-[1,4′-bipiperidine]-1′-carboxylate], for which the “improvement of brain and plasma levels of DPTIP and/or its brain penetration index compared with DPTIP” value in data set [1] is listed as “highest improvement”. Besides, the “plasma exposure of the intact compound (AUC0-t)” value in data set [2] (oral 10 mg/kg DPTIP equivalent) was 0.969 µM·h. For the same molecule, in data set [2] (oral 10 mg/kg DPTIP equivalent (P18: in the brain)), the “conversion of prodrug to DPTIP in vivo” value is reported as more than 50%.

The record behind these values is patent publication US20240287108A1, “nSMASE2 INHIBITOR PRODRUGS WITH ENHANCED ORAL AND BRAIN EXPOSURES” (The Johns Hopkins University, priority 2021, published 2024).
